Columns and labels:
[1] = tested on: tetradecanoylphorbol 13-acetate (TPA) induced ear edema; test: TPA-induced ear edema model; assay type: in vivo, mice; details: for AUC reduction (%) TPA: 10 μg one single s.c. injection 20 minutes before TPA, compared to PBS control; for Peak reduction (%) TPA: 10 μg subcutaneously 20 minutes before induction of edema
Procedure: A stock solution of TPA was prepared by dissolving TPA in DMSO, 1 mg/mL, and was stored frozen at −80° C. For study B-E, a working solution was prepared with 200 μL of the TPA stock solution added to 800 μL acetone. The working solution was used the same day as it was prepared.
Each cage was identified by a cage card marked with study number, group number, ethical approval number, sex and animal ear numbers. The animals were individually marked on the tail with transverse lines corresponding to the animals' number, using a permanent-ink felt pen. An illustration of the protocols used for the different treatments is outlined in Table 4. The compounds were tested according to the same protocols with necessary modifications.
Intraperitoneal (i.p.) injections were performed by giving 100 μL in the lower right quadrant of the abdomen. Subcutaneous injections were done with 100 μL in the neck region. Intranasal administration was performed by letting the mouse inhale droplets into the nostrils, total volume 40 μL. All administrations were done on non-anesthetized mice.
(§1) Both outer ears of a non-anesthetized mouse were washed with mild soap (Palmolive, Sweden) using a soft tooth brush, the ears were dried with tissue and cleaned with tissue soaked with acetone. After allowing the acetone to evaporate, TPA or AA was applied on both sides, 10 μL, on each side of the ear with care to cover the whole ear. The mouse was held for 20 seconds to allow the solvent to evaporate.
Intraperitoneal injections were given in the lower right quadrant of the abdomen with the animal held in a supine position. Subcutaneous (s.c.) injections were given in the neck of the animals. Intranasal administrations were given to mice held in a slightly reclining position. With an adjustable micro-pipette 40 μL of the test substance was given in droplets on the nostrils and the mouse was allowed to aspirate at free will.
(§2) The ears of non-anesthetized mice were measured at different time points for up to 96 hours after the TPA was administered, or up to 24 hours for the AA model. The first measurements were done before the edema was induced. The thickness was recorded with a spring loaded dial micrometer (Limit, Thickness Gauge, accuracy 0.01 mm, contact area Ø6 mm, Luna AB, Allingsås, Sweden) in triplicates at all time points per ear.
(§3) The average thickness for both ears on a mouse was calculated and compared to the average thickness of the ears at the starting time point. The value obtained at the start of the experiment was set as 100%. The peak values and area under the curve (AUC) values for the treatment groups were calculated and compared to the inflamed control group, treated with PBS (set as 100%), and expressed as a percentage change (Δ% AUC).
(§4) Area under the curve (AUC) with base line set as 100 was calculated using GraphPad Prism version 4.03 for Windows (GraphPad Software, San Diego Calif. USA, www.graphpad.com).
AUC reduction and P-values were calculated against the positive control (TPA or AA+PBS).

[2] = tested on: OVA induced airway inflammation; test: Ovalbumin (OVA) induced allergic airway inflammation, BAL fluid cell counts; assay type: in vivo, Balb/c mice; details: prophylactic protocol, 50 μg/animal intranasal on day 16 and 21; for cell migration into BAL fluid: second experiment
Procedure: Mice were sensitized intraperitoneally with 200 μL OVA/aluminium hydroxide gel (1:3) on day 0 and 12 (see FIG. 6). OVA (chicken egg albumin grade V, Sigma, St. Louis, Mo.) was dissolved in saline and mixed with aluminium hydroxide gel to a concentration of 50 μg/mL by rotation at 4° C. for 3 h. On days 23, 26, 30 and 33 (see FIG. 6), mice were challenged in the lungs by inhalation of aerosolized OVA for 30 minutes using a Batelle exposure chamber. Aerosols were generated by a compressed-air nebulizer (Collison 6-jet) at airflow 7.4 L/min using a nebulizer concentration of 10 mg/mL OVA dissolved in PBS (Sigma, St Louis, Mo., USA). The control group with non-sensitized animals received no other treatment than aerosolized OVA at days 23, 26, 30 and 33.
In this OVA model (FIG. 6), a total of 4 oligonucleotides were tested, IDX9025, IDX9038, IDX9053 (Table 1, SEQ ID NO 2-4) and IDX0150 (Table 3, SEQ ID NO 11). The oligonucleotides were synthesized by biomers.net GmbH, Ulm, Germany and stored frozen at −20° C. The oligonucleotides were diluted with PBS to the working concentration (1,247 μg/μL) and kept at −20° C. until the first day of instillation, thereafter they were placed at 4° C.
In a first experiment, both prophylactic and therapeutic protocols were tested (see FIG. 6). The drug treatment consisted of intranasal instillations of IDX0150 (1,247 μg/μL, provided by InDex Pharmaceuticals AB, Stockholm, Sweden) on days 16 and 21 (prophylactic protocol), on days 30 and 33 (therapeutic protocol A) or on days 30 and 34 (therapeutic protocol B). The instillations in the therapeutic protocols (A & B) on days 30 and 33 were given 4 h after aerosol challenge. The second instillation in protocol B on day 34 was given 24 h after the last aerosol challenge. The drug was administered in 40 μL PBS giving a dose of ˜50 μg/mice (49.88 μg/mice). The two sensitized sham-treatment groups were instilled with PBS, the same total volume as for the treatment groups, according to either the prophylactic protocol (days 16 and 21) or to the therapeutic protocol A (days 30 and 33).
In a second experiment, since administration of IDX0150 in the first experiment using prophylactic protocol (FIG. 6) gave a significant reduction of airway inflammation (FIG. 7), three other substances were tested with the same protocol. The drug treatment consisted of intranasal instillations of IDX9025, IDX9038 and IDX9053 (Table 1) (1,247 μg/μL, provided by InDex Pharmaceuticals AB) on days 16 and 21 (see FIG. 6, prophylactic protocol). All substances were administered in 40 μL PBS giving a dose of ˜50 μg/mice (49.88 μg/mice). The two sensitized sham-treatment groups were instilled with PBS, the same total volume as for the treatment groups, according to the prophylactic protocol (days 16 and 21).
Mice were killed by cervical dislocation 42 h after the last OVA aerosol challenge. The trachea was cannulated with polyethylene tubing (Becton Dickinson, Sparks, Md., USA) and bronchoalveolar lavage (BAL) was performed using 4×1 mL aliquots of ice-cold Hank's balanced salt solution (HBSS) (Sigma, St Louis, Mo., USA). The BAL fluid was centrifuged (400 g, 10 min, 4° C.) and the BAL fluid cells were resuspended in 0.4 mL PBS. The total number of leukocytes counted using tryphan blue exclusion in a Barker chamber. Duplicate Cytospin (Cytospin 3, Shandon, Runcorn, UK) preparations of BAL fluid cells were stained with May Grünewald Giemsa for differential counts, using standard morphological criteria.
Statistical comparisons were performed using One-way analysis of variance (ANOVA) using Dunnett's post hoc correction to compare with sensitized PBS treated control mice (GraphPad Prism 3). Data are shown as mean±standard deviation. P<0.05 was considered significant.

[3] = tested on: arachidonic acid (AA) induced ear edema; test: Arachidonic acid (AA) induced ear edema model; assay type: in vivo, mice
Procedure: A stock solution of AA was prepared by diluting AA in acetone, 4 mg/10 μL, and was stored frozen at −80° C. A final working solution, 1 mg/10 μL, in acetone was prepared. The working solution was used within one hour after preparation.
as §1, §2, §3, §4
In addition to the experiments done with the control compounds and IDX0001, all other test compounds were investigated in a similar fashion in the TPA and/or AA ear edema models, where the test compounds were given subcutaneously (10 μg) 20 minutes before induction of edema. The results were expressed as reduction of peak value and reduction of area under curve (AUC) in Table 5.

Substance | AUC reduction (%) TPA [1] [%] | Peak reduction (%) TPA [1] [%] | cell migration into BAL fluid [2] | migration of eosinophils into the BAL fluid ([2]; P<0.001) | migration of leukocytes into the BAL fluid ([2]; P<0.05) | AUC reduction (%) AA ([3]; 10 μg one single s.c. injection 20 minutes before AA, compared to PBS control) [%] | Peak reduction (%) AA ([3]; 10 μg subcutaneously 20 minutes before induction of edema) [%]
G*G*G*TCGTCTG*C*G*G (GGGTCGTCTGCGG; DNA, linkages s3 o6 s3 (s phosphorothioate, o phosphodiester), methylation of C not given here) [IDX9053] | −39.0 | −30.5 | no significant reduction of cell migration | – | – | – | –
T*C*G*TCGTTCGGCCGATCG*T*C*C (TCGTCGTTCGGCCGATCGTCC; DNA, linkages s3 o14 s3 (s phosphorothioate, o phosphodiester), methylation of C not given here) [IDX9038, oligonucleotide; * = phosphorothioate modification] | −47.4 | −37.9 | – | significantly reduce | significantly reduce | – | –
T*G*C*CATTCGTCGATTTCGTC*G*A*T (TGCCATTCGTCGATTTCGTCGAT; DNA, linkages s3 o16 s3 (s phosphorothioate, o phosphodiester), methylation of C not given here) [IDX9025, oligonucleotide; * = phosphorothioate modification] | −57.8 | −23.5 | no significant reduction of cell migration | – | – | −81.9 | −14.9

Reference: patent US8410068B2, “Compounds for the treatment or alleviation of edema, and methods for their use” (Index Pharmaceuticals AB, priority 2007, dated 2013)
